System: morphine tolerant mice
Assay: Opiate tolerance test (hot plate) in the mouse
Type: in vivo
Settings: for foot-licking latency, change as compared with animals receiving morphine from Day 1 to Day 6: morphine 32 mg/kg i.p. twice daily Day 1 to Day 6, hot plate 54° C.
Experimental: The method, which detects tolerance to analgesic activity, follows that described by Fernandes et al (Naunyn-Schmiedeberg's Arch. Pharmacol., 297, 53-60, 1977).
Mice were placed onto a hot metal plate maintained at 54° C. surrounded by a Plexiglas cylinder (height: 13 cm; diameter: 19 cm) (Bioseb: model PE34). The latency to the first foot-lick was measured (maximum: 30 seconds). Morphine (32 mg/kg i.p.) or vehicle were administered twice daily for 6 days (at about 9:00 and 15:00), and then administered with morphine 8 mg/kg i.p. (or saline) 30 minutes before the test on Day 7 to assess morphine tolerance.
The test substances were each evaluated at 3 doses (1, 3 and 10 mg/kg for Compound (I) and 0.3, 1 and 3 mg/kg for Compound (II), administered in morphine tolerant mice p.o. acutely 60 minutes before the test on Day 7. The experiment included appropriate control groups to assess the potential effects of the test substances on morphine tolerance. Compound (III) was evaluated at 1 dose (10 mg/kg), administered under the same experimental conditions and was used as comparison substance.
10 mice were studied per group. The test was performed blind. Data were analysed by comparing treated groups with appropriate controls using unpaired Student's t tests.

[1] = 1 mg/kg p.o. acutely 60 minutes before the test on Day 7
[2] = 3 mg/kg p.o. acutely 60 minutes before the test on Day 7
[3] = 10 mg/kg p.o. acutely 60 minutes before the test on Day 7

| SMILES | expression of morphine tolerance (conclusion) (1 mg/kg p.o. acutely) | foot-licking latency, change as compared with animals receiving morphine from Day 1 to Day 6 [1] | foot-licking latency, change as compared with animals receiving morphine from Day 1 to Day 6 [2] | foot-licking latency, change as compared with animals receiving morphine from Day 1 to Day 6 [3] | foot-licking latency, change as compared with animals receiving morphine from Day 1 to Day 6 (0.3 mg/kg p.o. acutely 60 minutes before the test on Day 7) | expression of morphine tolerance (conclusion) (3 mg/kg p.o. acutely) | expression of morphine tolerance (conclusion) (10 mg/kg p.o. acutely) |
| --- | --- | --- | --- | --- | --- | --- | --- |
| COC(=O)N1CC[C@@H]2[C@H]1CCC[C@@]2(O)C#Cc1cccc(C)c1 [Compound (I), (−)-(3aR,4S,7aR)-4-Hydroxy-4-m-tolylethynyl-octahydro-indole-1-carboxylic acid methyl ester] | significantly decrease the expression of morphine tolerance | +44% | no significant effects | no significant effects |  |  |  |
| COCc1cn(C2=NCC(=O)N3CCc4c(ccc(F)c4C4CC4)C3=C2)cn1 [Compound (II), 9-cyclopropyl-10-fluoro-2-(4-(methoxymethyl)-1H-imidazol-1-yl)-7,8-dihydro-[1,4]diazepino[7,1-a]isoquinolin-5(4H)-one] |  | +37% | +38% |  | no effects | significantly decrease the expression of morphine tolerance |  |
| Cc1cccc(C#Cc2ccccc2)n1 [Compound (III), 2-methyl-6-(phenylethynyl)pyridine, reference compound] |  |  |  | +32% |  |  | significantly decrease the expression of morphine tolerance |
